# Source: patent publication US10364226B2, “Pyridazinone compounds and uses thereof” (priority 2013, dated 2019)
# Experiments:
# EN PA = EN PA (Influenza A virus, UniProt P15659); test: EN PA FRET Inhibition Assay; format: biochemical; settings: read-out: Potency
# [1] = test system: Influenza strain A549 A/WSN/33 (H1N1); test: Influenza Antiviral Assay; format: cell-based, Influenza A virus; settings: Influenza A virus, A549, 20 h, neuraminidase fluorescence readout, read-out: % Inhibition
SMILES,IC50 (EN PA),EC50 [1]
"O=C(O)c1nn(-c2cccc(C(F)(F)F)c2)cc(O)c1=O [Compound 1, 5-hydroxy-4-oxo-1-(3-(trifluoromethyl)phenyl)-1,4-dihydropyridazine-3-carboxylic acid]",100 to 1000 nM,> 100000 nM
"CCN(CC)S(=O)(=O)c1ccc(OC)c(-n2cc(O)c(=O)c(C(=O)O)n2)c1 [Compound 2, 1-(5-(N,N-diethylsulfamoyl)-2-methoxyphenyl)-5-hydroxy-4-oxo-1,4-dihydropyridazine-3-carboxylic acid]",100 to 1000 nM,> 100000 nM
O=C(O)c1nn(-c2ccc(F)cc2)cc(O)c1=O [Compound 4],100 to 1000 nM,> 100000 nM
O=C(O)c1nn(-c2cccc(Oc3ccccc3)c2)cc(O)c1=O [Compound 6],100 to 1000 nM,> 100000 nM
O=C(O)c1nn(-c2ccccc2C(F)(F)F)cc(O)c1=O [Compound 7],100 to 1000 nM,> 100000 nM
O=C(O)c1nn(-c2ccccc2Oc2ccccc2)cc(O)c1=O [Compound 9],100 to 1000 nM,> 100000 nM
O=C(O)c1nn(-c2ccc3c(c2)CCC3)cc(O)c1=O [Compound 10],100 to 1000 nM,> 100000 nM
O=C(O)c1nn(-c2ccccc2N2CCCCC2)cc(O)c1=O [Compound 11],100 to 1000 nM,> 100000 nM
CS(=O)(=O)Nc1cccc(-n2cc(O)c(=O)c(C(=O)O)n2)c1 [Compound 17],100 to 1000 nM,> 100000 nM
O=C(O)c1nn(-c2ccccc2-c2ccccc2)cc(O)c1=O [Compound 18],100 to 1000 nM,> 100000 nM
CN(Cc1ccccc1-n1cc(O)c(=O)c(C(=O)O)n1)C1CCCCC1 [Compound 19],100 to 1000 nM,> 100000 nM
O=C(O)c1nn(-c2cc(C(F)(F)F)cc(C(F)(F)F)c2)cc(O)c1=O [Compound 20],100 to 1000 nM,> 100000 nM
O=C(O)c1nn(-c2ccccc2OC(F)(F)F)cc(O)c1=O [Compound 21],< 100 nM,> 100000 nM
O=C(O)c1nn(-c2ccccc2S(=O)(=O)c2ccccc2)cc(O)c1=O [Compound 24],< 100 nM,> 100000 nM
O=C(O)c1nn(-c2ccccc2-c2ccccc2-c2ccccc2)cc(O)c1=O [Compound 35],< 100 nM,< 20000 nM
O=C(O)c1nn(-c2ccccc2N2CCCC2Cc2ccccc2)cc(O)c1=O (stereo not shown) [Compound 203],100 to 1000 nM,20000 to 100000 nM
CC1(C)CCN(c2ccccc2-n2cc(O)c(=O)c(C(=O)O)n2)CC1 [Compound 206],100 to 1000 nM,20000 to 100000 nM
CC(C)C1CCN(c2ccccc2-n2cc(O)c(=O)c(C(=O)O)n2)CC1 [Compound 207],100 to 1000 nM,20000 to 100000 nM
CC1CCCN(c2ccccc2-n2cc(O)c(=O)c(C(=O)O)n2)C1 (stereo not shown) [Compound 210],100 to 1000 nM,> 100000 nM

SMILES,IC50 (EN PA),EC50 [1]
O=C(O)c1nn(-c2ccccc2N2CCCC(c3ccccc3)C2)cc(O)c1=O (stereo not shown) [Compound 211],100 to 1000 nM,20000 to 100000 nM
Cc1ccc(OC(C)C)c(-c2ccccc2-n2cc(O)c(=O)c(C(=O)O)n2)c1 [Compound 314],100 to 1000 nM,> 100000 nM
O=C(O)c1nn(-c2ccccc2-c2ccccc2OC2CCCC2)cc(O)c1=O [Compound 319],100 to 1000 nM,< 20000 nM
O=C(O)c1nn(-c2ccccc2-c2ccc3[nH]ccc3c2)cc(O)c1=O [Compound 320],100 to 1000 nM,> 100000 nM
"O=C(O)c1nn(CCc2ccccc2C(F)(F)F)cc(O)c1=O [Compound 400, 1-(2-(trifluoromethyl)phenethyl)-1,4-dihydro-5-hydroxv-4-oxopyridazine-3-carboxylic acid]",< 100 nM,> 100000 nM
O=C(O)c1nn(CCc2ccccc2)cc(O)c1=O [Compound 401],100 to 1000 nM,> 100000 nM
O=C(O)c1nn(CCCc2ccccc2)cc(O)c1=O [Compound 402],100 to 1000 nM,> 100000 nM
O=C(O)c1nn(Cc2ccccc2-c2ccccc2)cc(O)c1=O [Compound 403],< 100 nM,> 100000 nM
CC(C)(C)OC(=O)n1cc(CCn2cc(O)c(=O)c(C(=O)O)n2)c2ccccc21 [Compound 404],< 100 nM,> 100000 nM
CCOC(=O)c1nn(CC2(c3cccc(C(F)(F)F)c3)CCCC2)cc(O)c1=O [Compound 405],≥ 1000 nM,< 20000 nM
O=C(O)c1nn(CC2(c3cccc(C(F)(F)F)c3)CCCC2)cc(O)c1=O [Compound 406],< 100 nM,< 20000 nM
O=C(O)c1nn(CCc2c[nH]c3ccccc23)cc(O)c1=O [Compound 407],100 to 1000 nM,> 100000 nM
CCOC(=O)c1nn(CCc2ccccc2C(F)(F)F)cc(O)c1=O [Compound 408],≥ 1000 nM,20000 to 100000 nM
O=C(O)c1nn(Cc2ccccc2)cc(O)c1=O [Compound 409],100 to 1000 nM,> 100000 nM
O=C(O)c1nn(CC2(c3ccccc3)CCCC2)cc(O)c1=O [Compound 410],< 100 nM,< 20000 nM
CCOC(=O)c1nn(CC2(c3ccccc3)CCCC2)cc(O)c1=O [Compound 411],100 to 1000 nM,< 20000 nM
O=C(O)c1nn(CCc2cccc(C(F)(F)F)c2)cc(O)c1=O [Compound 412],< 100 nM,> 100000 nM
Cc1ccc(C(C)(C)Cn2cc(O)c(=O)c(C(=O)O)n2)cc1 [Compound 416],< 100 nM,20000 to 100000 nM
O=C(O)c1nn(CCC2CCCCC2)cc(O)c1=O [Compound 421],100 to 1000 nM,> 100000 nM

SMILES,IC50 (EN PA),EC50 [1]
O=C(O)c1nn(CC2(n3ccc4cccnc43)CCCC2)cc(O)c1=O [Compound 422],< 100 nM,< 20000 nM
O=C(O)c1nn(CCc2cccc3ccccc23)cc(O)c1=O [Compound 423],100 to 1000 nM,> 100000 nM
O=C(O)c1nn(CC2(c3cccc(C(F)(F)F)c3)CC2)cc(O)c1=O [Compound 424],100 to 1000 nM,20000 to 100000 nM
"CCC(NC(=O)c1nn(CC2(c3cccc(C(F)(F)F)c3)CCCC2)cc(O)c1=O)C(F)(F)F (stereo not shown) [Compound 500, 5-hydroxy-4-oxo-N-(1,1,1-trifluorobutan-2-yl)-1-((1-(3-(trifluoromethyl)phenyl)cyclopentyl)methyl)-1,4-dihydropyridazine-3-carboxamide]",100 to 1000 nM,< 20000 nM
CNC(=O)c1nn(-c2ccccc2-c2ccc(CC(C)C)cc2)cc(O)c1=O [Compound 501],≥ 1000 nM,< 20000 nM
O=C(c1nn(CC2(c3cccc(C(F)(F)F)c3)CCCC2)cc(O)c1=O)N1CCC(F)(F)C1 [Compound 502],≥ 1000 nM,< 20000 nM
O=C(NC1(C(F)(F)F)CCCC1)c1nn(CC2(c3cccc(C(F)(F)F)c3)CCCC2)cc(O)c1=O [Compound 503],100 to 1000 nM,< 20000 nM
CN(C)C(=O)c1nn(CC2(c3cccc(C(F)(F)F)c3)CCCC2)cc(O)c1=O [Compound 504],≥ 1000 nM,20000 to 100000 nM
O=C(NCC(F)(F)F)c1nn(CC2(c3cccc(C(F)(F)F)c3)CCCC2)cc(O)c1=O [Compound 505],100 to 1000 nM,< 20000 nM
CNC(=O)c1nn(CC2(c3cc(C(F)(F)F)cc(C(F)(F)F)c3)CCCC2)cc(O)c1=O [Compound 506],100 to 1000 nM,< 20000 nM
O=C(NC1CC1)c1nn(CC2(c3cccc(C(F)(F)F)c3)CCCC2)cc(O)c1=O [Compound 507],100 to 1000 nM,< 20000 nM
O=C(NCc1ccccc1)c1nn(CC2(c3cccc(C(F)(F)F)c3)CCCC2)cc(O)c1=O [Compound 509],100 to 1000 nM,< 20000 nM
O=C(NCC1CC1)c1nn(CC2(c3cccc(C(F)(F)F)c3)CCCC2)cc(O)c1=O [Compound 510],100 to 1000 nM,< 20000 nM
CNC(=O)c1nn(CC2(c3cccc(C(F)(F)F)c3)CCCC2)cc(O)c1=O [Compound 511],100 to 1000 nM,< 20000 nM
CS(=O)(=O)NC(=O)c1nn(CC2(c3cccc(C(F)(F)F)c3)CCCC2)cc(O)c1=O [Compound 512],100 to 1000 nM,< 20000 nM
O=C(NCc1ccc(Cl)c(Cl)c1)c1nn(CC2(c3cccc(C(F)(F)F)c3)CCCC2)cc(O)c1=O [Compound 513],100 to 1000 nM,< 20000 nM
O=C(NC1CCCC1)c1nn(CC2(c3cccc(C(F)(F)F)c3)CCCC2)cc(O)c1=O [Compound 514],100 to 1000 nM,< 20000 nM
O=C(NC1CCC1)c1nn(CC2(c3cccc(C(F)(F)F)c3)CCCC2)cc(O)c1=O [Compound 515],100 to 1000 nM,> 100000 nM
